# ChEMBL document CHEMBL1649066, “An imidazopiperidine series of CCR5 antagonists for the treatment of HIV: the discovery of N-{(1S)-1-(3-fluorophenyl)-3-[(3-endo)-3-(5-isobutyryl-2-methyl-4,5,6,7-tetrahydro-1H-imidazo[4,5-c]pyridin-1-yl)-8-azabicyclo[3.2.1]oct-8-yl]propyl}acetamide (PF-232798)” (J Med Chem, 2011)
# The source made the active and inactive calls. The rule behind the calls is not given here.
# Key:
# [1] = Half life in rat at 2 mg/kg, iv and 2 mg/kg, po; type: ADME, organism-based; conditions: in vivo
# [2] = Clearance in rat at 2 mg/kg, iv and 2 mg/kg, po; type: ADME, organism-based; conditions: in vivo
# [3] = Plasma protein binding in dog at 0.5 mg/kg, iv and 0.5 mg/kg, po; type: ADME, organism-based, Canis lupus familiaris; conditions: read-out: PPB (converted)
# [4] = Oral bioavailability in dog at 0.5 mg/kg; type: ADME, organism-based, Canis lupus familiaris; conditions: in vivo
# [5] = Tmax in dog at 0.5 mg/kg, po; type: ADME, organism-based, Canis lupus familiaris; set-up: dose 0.5 mg/kg, route oral; conditions: in vivo
# [6] = Half life in dog at 0.5 mg/kg, iv and 0.5 mg/kg, po; type: ADME, organism-based, Canis lupus familiaris; conditions: in vivo
# [7] = system: Rattus norvegicus; test: Unbound clearance in rat at 2 mg/kg, iv and 2 mg/kg, po; type: ADME, organism-based; conditions: in vivo
# [8] = Octanol-buffer partition coefficient, log D of the compound
# [9] = system: Rattus norvegicus; test: fCmax in rat at 2 mg/kg, po; type: ADME, organism-based; set-up: dose 2 mg/kg, route oral; conditions: in vivo
# [10] = system: Canis familiaris; test: fCmax in dog at 0.5 mg/kg, po; type: ADME, organism-based, Canis lupus familiaris; set-up: dose 0.5 mg/kg, route oral; conditions: in vivo
# [11] = Intrinsic clearance in human liver microsomes assessed per mg of protein; type: ADME, Microsome
# [12] = system: Canis familiaris; test: Unbound clearance in dog at 0.5 mg/kg, iv and 0.5 mg/kg, po; type: ADME, organism-based, Canis lupus familiaris; conditions: in vivo
# [13] = biological target: Voltage-gated inwardly rectifying potassium channel KCNH2 (Homo sapiens, UniProt Q12809)
# Chain of Voltage-gated inwardly rectifying potassium channel KCNH2 (Q12809 whole entry): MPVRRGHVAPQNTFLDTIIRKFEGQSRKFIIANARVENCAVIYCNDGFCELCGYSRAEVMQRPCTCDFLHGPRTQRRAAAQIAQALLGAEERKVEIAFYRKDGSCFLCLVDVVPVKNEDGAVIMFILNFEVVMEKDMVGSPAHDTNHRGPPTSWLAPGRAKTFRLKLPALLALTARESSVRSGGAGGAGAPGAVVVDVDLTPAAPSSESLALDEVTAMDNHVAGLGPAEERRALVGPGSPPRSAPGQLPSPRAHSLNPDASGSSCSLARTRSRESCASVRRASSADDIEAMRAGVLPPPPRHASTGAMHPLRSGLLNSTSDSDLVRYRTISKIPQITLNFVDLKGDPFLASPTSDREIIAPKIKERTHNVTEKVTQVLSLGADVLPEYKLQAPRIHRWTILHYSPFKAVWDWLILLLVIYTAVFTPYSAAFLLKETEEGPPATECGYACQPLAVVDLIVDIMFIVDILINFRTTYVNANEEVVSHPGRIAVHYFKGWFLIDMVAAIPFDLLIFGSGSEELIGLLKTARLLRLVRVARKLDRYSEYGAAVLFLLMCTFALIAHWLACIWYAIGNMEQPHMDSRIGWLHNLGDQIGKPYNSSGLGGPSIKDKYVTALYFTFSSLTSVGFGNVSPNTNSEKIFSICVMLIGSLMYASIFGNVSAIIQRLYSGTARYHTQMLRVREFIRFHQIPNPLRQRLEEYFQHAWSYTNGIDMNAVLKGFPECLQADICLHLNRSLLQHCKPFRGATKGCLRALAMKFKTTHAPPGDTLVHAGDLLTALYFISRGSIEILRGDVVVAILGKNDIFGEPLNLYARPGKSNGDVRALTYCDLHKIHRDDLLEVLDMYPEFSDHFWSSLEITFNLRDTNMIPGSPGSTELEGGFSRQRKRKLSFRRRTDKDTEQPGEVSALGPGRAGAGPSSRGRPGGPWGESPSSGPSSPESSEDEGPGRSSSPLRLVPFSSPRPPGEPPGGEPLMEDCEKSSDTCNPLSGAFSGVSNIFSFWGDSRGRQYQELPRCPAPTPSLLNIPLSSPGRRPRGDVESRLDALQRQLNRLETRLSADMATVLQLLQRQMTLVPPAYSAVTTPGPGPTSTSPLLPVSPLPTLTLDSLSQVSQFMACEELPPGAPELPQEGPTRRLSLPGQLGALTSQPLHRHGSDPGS
# Description: Displacement of [3H]-dofetilide from human ERG expressed in HEK293 cells
# [14] = system: Human immunodeficiency virus 1; test: Antiviral activity against maraviroc-resistant HIV1 isolate CC185 at 100 times IC90 concentration; type: functional, organism-based
# [15] = Volume of distribution in dog at 0.5 mg/kg, iv and 0.5 mg/kg, po; type: ADME, organism-based, Canis lupus familiaris; conditions: in vivo
# [16] = Intrinsic clearance in rat liver microsomes assessed per mg of protein; type: ADME, Microsome
# [17] = Apparent permeability from basolateral to apical side of human Caco2 cells; conditions: Caco-2
# [18] = Plasma protein binding in rat at 2 mg/kg, iv and 2 mg/kg, po; type: ADME, organism-based; conditions: read-out: PPB (converted)
# [19] = Intrinsic clearance in dog liver microsomes assessed per mg of protein; type: ADME, Canis lupus familiaris, Microsome
# [20] = Clearance in dog at 0.5 mg/kg, iv and 0.5 mg/kg, po; type: ADME, organism-based, Canis lupus familiaris; conditions: in vivo
# [21] = Oral bioavailability in rat at 2 mg/kg; type: ADME, organism-based; conditions: in vivo
# [22] = system: Human immunodeficiency virus 1; test: Antiviral activity against maraviroc-resistant HIV1 isolate CC185 at 10 times IC90 concentration; type: functional, organism-based
# [23] = system: Human immunodeficiency virus; test: Antiviral activity against HIV Ba-L infected in PBMC; type: functional; conditions: Human immunodeficiency virus 1, Ba-L
# [24] = Apparent permeability from apical to basolateral side of human Caco2 cells; conditions: Caco-2
# [25] = system: Human immunodeficiency virus 1; test: Antiviral activity against maraviroc-resistant HIV1 isolate CC185 at IC90 concentration; type: functional, organism-based
# [26] = Tmax in rat at 2 mg/kg, po; type: ADME, organism-based; set-up: dose 2 mg/kg, route oral; conditions: in vivo
# [27] = Oral bioavailability in dog at 1 mg/kg; type: ADME, organism-based, Canis lupus familiaris; conditions: in vivo
# [28] = system: Rattus norvegicus; test: Unbound clearance in rat at 1 mg/kg, iv and 10 mg/kg, po; type: ADME, organism-based; conditions: in vivo
# [29] = Absorption in dog at 0.5 mg/kg, iv and 1 mg/kg, po; type: ADME, organism-based, Canis lupus familiaris; conditions: in vivo, read-out: Activity
# [30] = Clearance in rat at 1 mg/kg, iv and 10 mg/kg, po; type: ADME, organism-based; conditions: in vivo
# [31] = system: Rattus norvegicus; test: fCmax in rat at 10 mg/kg, po; type: ADME, organism-based; set-up: dose 10 mg/kg, route oral; conditions: in vivo
# [32] = Volume of distribution in dog at 0.5 mg/kg, iv and 1 mg/kg, po; type: ADME, organism-based, Canis lupus familiaris; conditions: in vivo
# [33] = Half life in rat at 1 mg/kg, iv and 10 mg/kg, po; type: ADME, organism-based; conditions: in vivo
# [34] = Plasma protein binding in dog at 0.5 mg/kg, iv and 1 mg/kg, po; type: ADME, organism-based, Canis lupus familiaris; conditions: read-out: PPB (converted)
# [35] = Plasma protein binding in rat at 1 mg/kg, iv and 10 mg/kg, po; type: ADME, organism-based; conditions: read-out: PPB (converted)
# [36] = Oral bioavailability in rat at 10 mg/kg; type: ADME, organism-based; conditions: in vivo
# [37] = Tmax in rat at 10 mg/kg, po; type: ADME, organism-based; set-up: dose 10 mg/kg, route oral; conditions: in vivo
# [38] = Half life in dog at 0.5 mg/kg, iv and 1 mg/kg, po; type: ADME, organism-based, Canis lupus familiaris; conditions: in vivo
# [39] = Absorption in rat at 1 mg/kg, iv and 10 mg/kg, po; type: ADME, organism-based; conditions: in vivo, read-out: Activity
# [40] = system: Canis familiaris; test: Unbound clearance in dog at 0.5 mg/kg, iv and 1 mg/kg, po; type: ADME, organism-based, Canis lupus familiaris; conditions: in vivo
# [41] = system: Rattus norvegicus; test: Unbound clearance in rat at 1 mg/kg, iv and 2 mg/kg, po; type: ADME, organism-based; conditions: in vivo
# [42] = Plasma protein binding in rat at 1 mg/kg, iv and 2 mg/kg, po; type: ADME, organism-based; conditions: read-out: PPB (converted)
# [43] = Half life in rat at 1 mg/kg, iv and 2 mg/kg, po; type: ADME, organism-based; conditions: in vivo
# [44] = Clearance in rat at 1 mg/kg, iv and 2 mg/kg, po; type: ADME, organism-based; conditions: in vivo
SMILES,fraction unbound [3],bioavailability [4] [%],Tmax [5] [h],half-life [6] [h],logD [8],Cmax_unbound [10] [µM],microsomal CLint [11] [µL/min/mg],CL [12] [L/h/kg],IC50 [13] [nM],Activity [14],Vd [15] [L/kg],microsomal CLint [16] [µL/min/mg],Papp B→A [17] [nm/s],microsomal CLint [19] [µL/min/mg],clearance [20] [L/h/kg],bioavailability [21] [%],Activity [22],IC90 [23] [nM],Papp A→B [24] [nm/s],Activity [25],further results
COC(=O)N1CCc2c(nc(C)n2[C@H]2C[C@H]3CC[C@@H](C2)N3CC[C@H](NC(C)=O)c2cccc(F)c2)C1,0.27,50,0.5,3.3,1.9,0.009,< 8,9,2000,Active,9.9,< 6,110,< 9,2.16,20,Active,0.8,30,Active,half-life [1]: 2.3 h; clearance [2]: 5.46 L/h/kg; CL [7]: 15.2 L/h/kg; Cmax_unbound [9]: 0.208 µM; fraction unbound [18]: 0.32; Tmax [26]: 2 h
Cc1nnc(C(C)C)n1[C@@H]1C[C@H]2CC[C@@H](C1)N2CC[C@H](NC(=O)C1CCC(F)(F)CC1)c1ccccc1 [MARAVIROC],,,1.5,,,0.08,49,,,,,< 6,120,< 9,,,,,< 10,,bioavailability [27]: 42%; CL [28]: 8.22 L/h/kg; Fa [29]: 70%; clearance [30]: 4.44 L/h/kg; Cmax_unbound [31]: 0.073 µM; Vd [32]: 4.3 L/kg; half-life [33]: 2.3 h; fraction unbound [34]: 0.4; fraction unbound [35]: 0.54; bioavailability [36]: 6%; Tmax [37]: 2 h; half-life [38]: 2.3 h; Fa [39]: 20%; CL [40]: 3.18 L/h/kg
CC(=O)N[C@@H](CCN1[C@@H]2CC[C@H]1C[C@@H](n1c(C)nc3c1CCN(C(=O)C(C)C)C3)C2)c1cccc(F)c1 [PF-232798],0.53,31,1,3.4,2,,13,3.78,12000,Active,10.5,< 6,80,< 9,2.16,< 5,Active,2,20,Active,CL [41]: 31.6 L/h/kg; fraction unbound [42]: 0.38; half-life [43]: 1.4 h; clearance [44]: 12.1 L/h/kg
COC(=O)N1CCc2nc(C)n([C@H]3C[C@H]4CC[C@@H](C3)N4CC[C@H](NC(C)=O)c3cccc(F)c3)c2C1,0.38,42,0.25,3.8,,,19,5.58,,Active,11.8,15,,32,2.16,8,Active,1.6,,Active,CL [41]: 31.1 L/h/kg; fraction unbound [42]: 0.29; half-life [43]: 1.7 h; clearance [44]: 2.76 L/h/kg; Tmax [26]: 2 h
